Experimental data from patent US7259161B2, “Compositions useful as inhibitors of JAK and other protein kinases” (Vertex Pharmaceuticals Incorporated, priority 2002, dated 2007).

Key:
Format in all cases: biochemical
[1] = target: JNK3 (Homo sapiens, UniProt P53779); assay: JNK3 inhibition assay (spectrophotometric coupled-enzyme assay); conditions: 10 μM ATP, 10 nM activated JNK3
Procedure: Compounds were assayed for the inhibition of JNK3 by a spectrophotometric coupled-enzyme assay. In this assay, a fixed concentration of activated JNK3 (10 nM) was incubated with various concentrations of a potential inhibitor dissolved in DMSO for 10 minutes at 30° C. in a buffer containing 0.1 M HEPES buffer, pH 7.5, containing 10 mM MgCl2, 2.5 mM phosphoenolpyruvate, 200 μM NADH, 150 μg/mL pyruvate kinase, 50 μg/mL lactate dehydrogenase, and 200 μM EGF receptor peptide. The EGF receptor peptide is a phosphoryl acceptor in the JNK3-catalyzed kinase reaction. The reaction was initiated by the addition of 10 μM ATP and the assay plate is inserted into the spectrophotometer's assay plate compartment that was maintained at 30° C. The decrease of absorbance at 340 nm was monitored as a function of time. The rate data as a function of inhibitor concentration was fitted to competitive inhibition kinetic model to determine the Ki.

[2] = target: T1, JAK3 (Homo sapiens, UniProt P52333); assay: JAK3 inhibition assay; conditions: 2 μM ATP, ELISA read at 450 nm
T1 sequence (P52333 1-1124): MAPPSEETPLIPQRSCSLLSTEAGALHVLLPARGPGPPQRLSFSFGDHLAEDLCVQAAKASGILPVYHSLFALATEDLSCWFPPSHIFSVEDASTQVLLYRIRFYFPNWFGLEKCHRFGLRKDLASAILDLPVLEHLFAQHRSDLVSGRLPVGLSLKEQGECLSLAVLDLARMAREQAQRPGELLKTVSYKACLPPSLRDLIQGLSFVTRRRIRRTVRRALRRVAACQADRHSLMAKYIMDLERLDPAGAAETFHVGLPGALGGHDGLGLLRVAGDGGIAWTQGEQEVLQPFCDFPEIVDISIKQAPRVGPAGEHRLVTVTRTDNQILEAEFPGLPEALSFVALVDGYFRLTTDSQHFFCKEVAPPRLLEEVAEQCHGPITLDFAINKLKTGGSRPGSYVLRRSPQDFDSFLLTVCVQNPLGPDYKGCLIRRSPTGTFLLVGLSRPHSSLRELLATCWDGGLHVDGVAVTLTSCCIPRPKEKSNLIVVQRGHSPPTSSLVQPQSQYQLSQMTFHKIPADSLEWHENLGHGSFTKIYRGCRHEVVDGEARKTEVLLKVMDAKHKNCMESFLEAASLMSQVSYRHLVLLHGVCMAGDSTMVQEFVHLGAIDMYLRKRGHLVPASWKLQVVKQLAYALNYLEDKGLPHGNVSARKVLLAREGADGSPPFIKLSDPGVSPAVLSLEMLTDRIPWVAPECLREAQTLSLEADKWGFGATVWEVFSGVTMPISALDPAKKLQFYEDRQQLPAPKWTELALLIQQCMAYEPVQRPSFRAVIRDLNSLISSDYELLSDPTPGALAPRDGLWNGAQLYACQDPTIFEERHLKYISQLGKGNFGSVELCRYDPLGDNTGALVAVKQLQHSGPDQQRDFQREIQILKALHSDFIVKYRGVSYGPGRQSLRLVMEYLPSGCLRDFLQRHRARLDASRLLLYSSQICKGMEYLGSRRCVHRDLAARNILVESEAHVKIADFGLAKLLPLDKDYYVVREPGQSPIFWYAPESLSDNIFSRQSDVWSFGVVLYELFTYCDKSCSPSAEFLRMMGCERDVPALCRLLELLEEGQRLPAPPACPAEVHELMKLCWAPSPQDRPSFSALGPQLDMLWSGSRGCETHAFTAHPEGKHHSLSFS
Procedure: Compounds were screened for their ability to inhibit JAK3 according to the method described by G. R. Brown, et al, Bioorg. Med. Chem. Lett. 2000, vol. 10, pp 575–579 in the following manner. Into Maxisorb plates, previously coated at 4° C. with Poly (Glu, Ala, Tyr) 6:3:1 then washed with phosphate buffered saline 0.05% and Tween (PBST), was added 2 μM ATP, 5 MM MgCl2, and a solution of compound in DMSO. The reaction was started with JAK enzyme and the plates incubated for 60 minutes at 30° C. The plates were then washed with PBST, 100 μL HRP-Conjugated 4G10 antibody was added, and the plate incubated for 90 minutes at 30° C. The plate was again washed with PBST, 100 μL TMB solution is added, and the plates were incubated for another 30 minutes at 30° C. Sulfuric acid (100 μL of 1M) was added to stop the reaction and the plate is read at 450 nm to obtain the optical densities for analysis to determine Ki values.

[3] = target: CDK-2/Cyclin A (Homo sapiens, UniProt P24941); assay: CDK2 inhibition assay (coupled enzyme assay); conditions: 100 μM ATP, 25 nM CDK-2/Cyclin A
Procedure: Compounds were screened for their ability to inhibit CDK-2/Cyclin A using a standard coupled enzyme assay (Fox et al (1998) Protein Sci 7, 2249). Reactions were carried out in 100 mM HEPES pH 7.5, 10 mM MgCl2, 25 mM NaCl, 1 mM DTT and 1.5% DMSO. Final substrate concentrations in the assay were 100 μM ATP (Sigma chemicals) and 100 μM peptide (American Peptide, Sunnyvale, Calif.). Assays were carried out at 30° C. and 25 nM CDK-2/Cyclin A. Final concentrations of the components of the coupled enzyme system were 2.5 mM phosphoenolpyruvate, 350 μM NADH, 30 μg/ml pyruvate kinase and 10 μg/ml lactate dehydrogenase.
An assay stock buffer solution was prepared containing all of the reagents listed above, with the exception of CDK-2/Cyclin A, DTT and the test compound of interest. 56 μl of the test reaction was placed in a 384 well plate followed by addition of 1 μl of 2 mM DMSO stock containing the test compound (final compound concentration 30 μM). The plate was preincubated for ˜10 minutes at 30° C. and the reaction initiated by addition of 10 μl of enzyme (final concentration 25 nM). Rates of reaction were obtained using a BioRad Ultramark plate reader (Hercules, Calif.) over a 5 minute read time at 30° C. Compounds showing >50% inhibition versus standard wells containing DMSO, but no compound, were titrated and IC50's determined using a similar protocol.

Sequence of JNK3 (P53779 whole entry, species assumed): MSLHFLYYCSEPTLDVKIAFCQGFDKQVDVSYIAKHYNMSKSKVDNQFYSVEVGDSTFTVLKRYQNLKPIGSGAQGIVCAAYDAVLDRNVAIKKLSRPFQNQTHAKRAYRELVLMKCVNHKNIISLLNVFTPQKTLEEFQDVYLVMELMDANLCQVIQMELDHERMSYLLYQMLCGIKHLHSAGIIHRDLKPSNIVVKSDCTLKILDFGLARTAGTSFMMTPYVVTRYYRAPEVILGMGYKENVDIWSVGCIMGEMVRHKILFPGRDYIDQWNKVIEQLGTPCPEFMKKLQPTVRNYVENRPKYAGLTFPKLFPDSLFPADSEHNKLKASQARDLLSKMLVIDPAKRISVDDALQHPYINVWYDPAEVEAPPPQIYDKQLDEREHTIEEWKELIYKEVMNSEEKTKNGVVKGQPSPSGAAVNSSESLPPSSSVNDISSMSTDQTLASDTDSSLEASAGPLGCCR

CN1C(=O)COc2ccc(-c3ccnc(Nc4ccccc4)n3)cc21 [IVa-1]
Ki [1]: < 1 µM | Ki [2]: < 1 µM

CN1C(=O)COc2ccc(-c3ccnc(Nc4cccc(F)c4)n3)cc21 [IVa-2]
Ki [1]: < 1 µM | Ki [2]: < 5 µM

Cc1cccc(Nc2nccc(-c3ccc4c(c3)N(C)C(=O)CO4)n2)c1 [IVa-3]
Ki [1]: < 1 µM | Ki [2]: < 1 µM

Cc1ccc(Nc2nccc(-c3ccc4c(c3)N(C)C(=O)CO4)n2)cc1 [IVa-4]
Ki [1]: < 1 µM | Ki [2]: < 5 µM

COc1ccc(Nc2nccc(-c3ccc4c(c3)N(C)C(=O)CO4)n2)cc1 [IVa-5]
Ki [1]: < 1 µM | Ki [2]: < 5 µM

Cc1cc(C)cc(Nc2nccc(-c3ccc4c(c3)N(C)C(=O)CO4)n2)c1 [IVa-6]
Ki [2]: < 1 µM

COc1cc(Nc2nccc(-c3ccc4c(c3)N(C)C(=O)CO4)n2)cc(OC)c1 [IVa-7]
Ki [2]: < 1 µM

O=C1COc2ccc(-c3ccnc(Nc4cccc(F)c4)n3)cc2N1 [IVa-10]
Ki [2]: < 5 µM

O=C1COc2ccc(-c3ccnc(Nc4ccc(F)cc4)n3)cc2N1 [IVa-11]
Ki [2]: < 5 µM

O=C1COc2ccc(-c3ccnc(Nc4ccc(Cl)cc4)n3)cc2N1 [IVa-13]
Ki [2]: < 5 µM

COc1cccc(Nc2nccc(-c3ccc4c(c3)NC(=O)CO4)n2)c1 [IVa-14]
Ki [2]: < 1 µM

Cc1ccccc1Nc1nccc(-c2ccc3c(c2)NC(=O)CO3)n1 [IVa-15]
Ki [2]: < 1 µM

NS(=O)(=O)c1cccc(Nc2nccc(-c3ccc4c(c3)NC(=O)CO4)n2)c1 [IVa-21]
Ki [2]: < 1 µM

CN1C(=O)COc2ccc(-c3ccnc(Nc4cccc(S(N)(=O)=O)c4)n3)cc21 [IVa-22]
Ki [3]: < 1 µM | Ki [1]: < 1 µM | Ki [2]: < 1 µM

CN1C(=O)COc2ccc(-c3ccnc(Nc4cccc(C(N)=O)c4)n3)cc21 [IVa-25]
Ki [2]: < 1 µM

CN1C(=O)COc2ccc(-c3ccnc(Nc4cccc(C#N)c4)n3)cc21 [IVa-26]
Ki [2]: < 5 µM

CN1C(=O)COc2ccc(-c3ccnc(Nc4cccc(O)c4)n3)cc21 [IVa-27]
Ki [2]: < 1 µM

COc1cccc(Nc2nccc(-c3ccc4c(c3)N(C)C(=O)CO4)n2)c1 [IVa-28]
Ki [2]: < 1 µM

O=C1COc2ccc(-c3ccnc(Nc4ccccc4)n3)cc2N1CCN1CCOCC1 [IVa-29]
Ki [2]: < 5 µM

O=C1COc2ccc(-c3ccnc(Nc4cccc(F)c4)n3)cc2N1CCN1CCOCC1 [IVa-30]
Ki [2]: < 5 µM

O=C1COc2ccc(-c3ccnc(Nc4cccc(Cl)c4)n3)cc2N1CCN1CCOCC1 [IVa-31]
Ki [2]: < 5 µM

O=C1COc2ccc(-c3ccnc(Nc4cccc(O)c4)n3)cc2N1CCN1CCOCC1 [IVa-32]
Ki [2]: < 5 µM

COc1cccc(Nc2nccc(-c3ccc4c(c3)N(CCN3CCOCC3)C(=O)CO4)n2)c1 [IVa-36]
Ki [2]: < 5 µM

NS(=O)(=O)c1ccc(Nc2nccc(-c3ccc4c(c3)N(CCN3CCOCC3)C(=O)CO4)n2)cc1 [IVa-39]
Ki [2]: < 5 µM

O=C1COc2ccc(-c3ccnc(Nc4ccccc4)n3)cc2N1Cc1cccnc1 [IVa-41]
Ki [2]: < 5 µM

O=C1COc2ccc(-c3ccnc(Nc4cccc(Cl)c4)n3)cc2N1Cc1cccnc1 [IVa-43]
Ki [2]: < 5 µM

O=C1COc2ccc(-c3ccnc(Nc4cccc(O)c4)n3)cc2N1Cc1cccnc1 [IVa-44]
Ki [2]: < 1 µM

COc1cccc(Nc2nccc(-c3ccc4c(c3)N(Cc3cccnc3)C(=O)CO4)n2)c1 [IVa-45]
Ki [2]: < 5 µM

COC(=O)c1cccc(Nc2nccc(-c3ccc4c(c3)N(Cc3cccnc3)C(=O)CO4)n2)c1 [IVa-46]
Ki [2]: < 5 µM

N#Cc1cccc(Nc2nccc(-c3ccc4c(c3)N(Cc3cccnc3)C(=O)CO4)n2)c1 [IVa-47]
Ki [2]: < 5 µM

O=C1COc2ccc(-c3ccnc(Nc4cccc(-c5ccccc5)c4)n3)cc2N1Cc1cccnc1 [IVa-48]
Ki [2]: < 5 µM

NS(=O)(=O)c1cccc(Nc2nccc(-c3ccc4c(c3)N(Cc3cccnc3)C(=O)CO4)n2)c1 [IVa-50]
Ki [2]: < 5 µM

NS(=O)(=O)c1ccc(Nc2nccc(-c3ccc4c(c3)N(Cc3cccnc3)C(=O)CO4)n2)cc1 [IVa-51]
Ki [2]: < 1 µM

Cc1cc(C)cc(Nc2nccc(-c3ccc4c(c3)N(Cc3cccnc3)C(=O)CO4)n2)c1 [IVa-52]
Ki [2]: < 5 µM

NC(=O)c1cccc(Nc2nccc(-c3ccc4c(c3)N(Cc3cccnc3)C(=O)CO4)n2)c1 [IVa-53]
Ki [2]: < 1 µM

O=C1COc2ccc(-c3ccnc(Nc4cccc(F)c4)n3)cc2N1Cc1ccccn1 [IVa-55]
Ki [2]: < 5 µM

O=C1COc2ccc(-c3ccnc(Nc4cccc(Cl)c4)n3)cc2N1Cc1ccccn1 [IVa-56]
Ki [2]: < 5 µM

COc1cccc(Nc2nccc(-c3ccc4c(c3)N(Cc3ccccn3)C(=O)CO4)n2)c1 [IVa-57]
Ki [2]: < 1 µM

COC(=O)c1cccc(Nc2nccc(-c3ccc4c(c3)N(Cc3ccccn3)C(=O)CO4)n2)c1 [IVa-58]
Ki [2]: < 5 µM

O=C1COc2ccc(-c3ccnc(Nc4cccc(-c5ccccc5)c4)n3)cc2N1Cc1ccccn1 [IVa-59]
Ki [2]: < 5 µM

O=C1COc2ccc(-c3ccnc(Nc4cccc(Oc5ccccc5)c4)n3)cc2N1Cc1ccccn1 [IVa-60]
Ki [2]: < 5 µM

O=C1COc2ccc(-c3ccnc(Nc4cccc(Cl)c4)n3)cc2N1Cc1ccncc1 [IVa-66]
Ki [2]: < 5 µM

NS(=O)(=O)c1cccc(Nc2nccc(-c3ccc4c(c3)N(Cc3ccncc3)C(=O)CO4)n2)c1 [IVa-70]
Ki [2]: < 5 µM

NS(=O)(=O)c1ccc(Nc2nccc(-c3ccc4c(c3)N(Cc3ccncc3)C(=O)CO4)n2)cc1 [IVa-71]
Ki [2]: < 1 µM

Cc1cc(C)cc(Nc2nccc(-c3ccc4c(c3)N(Cc3ccncc3)C(=O)CO4)n2)c1 [IVa-72]
Ki [2]: < 5 µM
